# Experimental data as given in patent US8952024B2, “Herbicidal pyrimidone derivatives” (E I du Pont de Nemours and Company, priority 2009, dated 2015).
# How the values were obtained:
# Assay type in all cases: in vivo
# corn (Zea mays) = assay: Test B pre-/postemergence plant response
# Source text: (§1) Seeds of plant species selected from blackgrass (Alopecurus myosuroides), downy bromegrass (Bromus tectorum), green foxtail (Setaria viridis), Italian ryegrass (Lolium multiflorum), wheat (Triticum aestivum), wild oat (Avena fatua), deadnettle (henbit deadnettle, Lamium amplexicaule), galium (catchweed bedstraw, Galium aparine), bermudagrass (Cynodon dactylon), Surinam grass (Brachiaria decumbens), cocklebur (Xanthium strumarium), corn (Zea mays), large crabgrass (Digitaria sanguinalis), woolly cupgrass (Eriochloa villosa), giant foxtail (Setaria faberii), goosegrass (Eleusine indica), johnsongrass (Sorghum halepense), kochia (Kochia scoparia), lambsquarters (Chenopodium album), morningglory (Ipomoea coccinea), nightshade (eastern black nightshade, Solanum ptycanthum), yellow nutsedge (Cyperus esculentus), pigweed (Amaranthus retroflexus), ragweed (common ragweed, Ambrosia elatior), Russian thistle (Salsola kali), soybean (Glycine max), sunflower (common oilseed sunflower, Helianthus annuus) and velvetleaf (Abutilon theophrasti) were planted into a blend of loam soil and sand and treated preemergence with test compounds formulated in a non-phytotoxic solvent mixture which included a surfactant.
# (§2) At the same time, plants selected from these crop and weed species and also winter barley (Hordeum vulgare), canarygrass (Phalaris minor), chickweed (Stellaria media) and windgrass (Apera spica-venti) were planted in pots containing Redi-Earth® planting medium (Scotts Company, 14111 Scottslawn Road, Marysville, Ohio 43041) comprising spaghnum peat moss, vermiculite, wetting agent and starter nutrients and treated with postemergence applications of some of the test chemicals formulated in the same manner. Plants ranged in height from 2 to 18 cm (1- to 4-leaf stage) for postemergence treatments.
# (§3) Treated plants and controls were maintained in a greenhouse for 13 to 15 days, after which time all treated plants were visually evaluated and compared to controls. Plant response ratings, summarized in Table B, are based on a scale of 0 to 100 where 0 is no effect and 100 is complete control. A dash (-) response means no test result.
# [1] = tested on: giant foxtail (Setaria faberii); assay: Test B pre-/postemergence plant response
# Source text: as §1, §2, §3
# [2] = tested on: goosegrass (Eleusine indica); assay: Test B pre-/postemergence plant response
# Source text: as §1, §2, §3
# [3] = tested on: green foxtail (Setaria viridis); assay: Test B pre-/postemergence plant response
# Source text: as §1, §2, §3
# [4] = tested on: johnsongrass (Sorghum halepense); assay: Test B pre-/postemergence plant response
# Source text: as §1, §2, §3
# [5] = tested on: lambsquarters (Chenopodium album); assay: Test B pre-/postemergence plant response
# Source text: as §1, §2, §3
# [6] = tested on: pigweed (Amaranthus retroflexus); assay: Test B pre-/postemergence plant response
# Source text: as §1, §2, §3
# soybean (Glycine max) = assay: Test B pre-/postemergence plant response
# Source text: as §1, §2, §3
# [7] = tested on: velvetleaf (Abutilon theophrasti); assay: Test B pre-/postemergence plant response
# Source text: as §1, §2, §3
# [8] = tested on: yellow nutsedge (Cyperus esculentus); assay: Test B pre-/postemergence plant response
# Source text: as §1, §2, §3
# [9] = tested on: canarygrass (Phalaris minor); assay: Test B postemergence plant response; conditions: Postemergence
# Source text: as §2, §3
# [10] = tested on: chickweed (Stellaria media); assay: Test B postemergence plant response; conditions: Postemergence
# Source text: as §2, §3
# [11] = tested on: windgrass (Apera spica-venti); assay: Test B postemergence plant response; conditions: Postemergence, scale 0 (no effect) to 100 (complete control)
# Source text: as §2, §3
# [12] = tested on: winter barley (Hordeum vulgare); assay: Test B postemergence plant response; conditions: Postemergence
# Source text: as §2, §3
# [13] = 250 g ai/ha, Preemergence, 0 to 100 scale
# [14] = Postemergence, 31 g ai/ha, scale 0 to 100 (0 no effect, 100 complete control)
# [15] = Postemergence, 62 g ai/ha, scale 0 (no effect) to 100 (complete control), 13 to 15 days
# [16] = Postemergence, 125 g ai/ha, visual rating after 13 to 15 days, scale 0 (no effect) to 100 (complete control)
# [17] = Postemergence, 250 g ai/ha, scale 0 to 100
# [18] = Preemergence, 31 g ai/ha, scale 0 to 100 (0 no effect, 100 complete control)
# [19] = Preemergence, 62 g ai/ha, scale 0 to 100 (0 no effect, 100 complete control)
# [20] = Preemergence, 125 g ai/ha, 0 to 100 scale
# [21] = 31 g ai/ha, scale 0 to 100 (0 no effect, 100 complete control)
# [22] = 62 g ai/ha, scale 0 (no effect) to 100 (complete control), 13 to 15 days
# [23] = 125 g ai/ha, visual rating after 13 to 15 days, scale 0 (no effect) to 100 (complete control)
compound,measurement,setting,value
Cc1c(Cl)cccc1-n1c(-c2ccccc2)ncc(C(=O)C2=C(O)CCCC2=O)c1=O [Compound 40],"Plant response rating, Corn",corn (Zea mays); [13],0
same,"Plant response rating, Corn",corn (Zea mays); [14],80
same,"Plant response rating, Corn",corn (Zea mays); [15],80
same,"Plant response rating, Corn",corn (Zea mays); [16],85
same,Corn plant response rating,corn (Zea mays); [17],90
same,"Plant response rating, Corn",corn (Zea mays); [18],0
same,"Plant response rating, Corn",corn (Zea mays); [19],0
same,Corn plant response rating,corn (Zea mays); [20],0
same,"Plant response rating, Foxtail, Giant",[1]; [13],98
same,"Plant response rating, Foxtail, Giant",[1]; [14],100
same,"Plant response rating, Foxtail, Giant",[1]; [15],100
same,"Plant response rating, Foxtail, Giant",[1]; [16],100
same,"Foxtail, Giant plant response rating",[1]; [17],100
same,"Plant response rating, Foxtail, Giant",[1]; [18],10
same,"Plant response rating, Foxtail, Giant",[1]; [19],65
same,"Foxtail, Giant plant response rating",[1]; [20],80
same,"Plant response rating, Goosegrass",[2]; [13],100
same,"Plant response rating, Goosegrass",[2]; [15],90
same,"Plant response rating, Goosegrass",[2]; [16],95
same,Goosegrass plant response rating,[2]; [17],98
same,"Plant response rating, Goosegrass",[2]; [18],80
same,Goosegrass plant response rating,[2]; [20],100
same,"Plant response rating, Foxtail, Green",[3]; [13],100
same,"Plant response rating, Foxtail, Green",[3]; [14],90
same,"Plant response rating, Foxtail, Green",[3]; [15],95
same,"Plant response rating, Foxtail, Green",[3]; [16],95
same,"Foxtail, Green plant response rating",[3]; [17],95
same,"Plant response rating, Foxtail, Green",[3]; [18],0
same,"Plant response rating, Foxtail, Green",[3]; [19],85
same,"Foxtail, Green plant response rating",[3]; [20],85
same,"Plant response rating, Johnsongrass",[4]; [13],90
same,"Plant response rating, Johnsongrass",[4]; [16],75
same,Johnsongrass plant response rating,[4]; [17],100
same,"Plant response rating, Johnsongrass",[4]; [18],10
same,"Plant response rating, Johnsongrass",[4]; [19],80
same,Johnsongrass plant response rating,[4]; [20],85
same,"Plant response rating, Lambsquarters",[5]; [13],100
same,"Plant response rating, Lambsquarters",[5]; [15],100
same,"Plant response rating, Lambsquarters",[5]; [16],100
same,Lambsquarters plant response rating,[5]; [17],100
same,"Plant response rating, Lambsquarters",[5]; [18],100
same,"Plant response rating, Lambsquarters",[5]; [19],100
same,Lambsquarters plant response rating,[5]; [20],100
same,"Plant response rating, Pigweed",[6]; [13],100
same,"Plant response rating, Pigweed",[6]; [15],98
same,"Plant response rating, Pigweed",[6]; [16],100
same,"Plant response rating, Pigweed",[6]; [18],98
same,Pigweed plant response rating,[6]; [20],100
same,"Plant response rating, Soybean",soybean (Glycine max); [13],70
same,"Plant response rating, Soybean",soybean (Glycine max); [15],100
same,"Plant response rating, Soybean",soybean (Glycine max); [16],100
same,"Plant response rating, Soybean",soybean (Glycine max); [18],0
same,Soybean plant response rating,soybean (Glycine max); [20],20
same,"Plant response rating, Velvetleaf",[7]; [13],100
same,"Plant response rating, Velvetleaf",[7]; [15],100
same,"Plant response rating, Velvetleaf",[7]; [16],100
same,"Plant response rating, Velvetleaf",[7]; [18],80
same,Velvetleaf plant response rating,[7]; [20],100
same,"Plant response rating, Nutsedge, Yellow",[8]; [13],85
same,"Plant response rating, Nutsedge, Yellow",[8]; [15],35
same,"Plant response rating, Nutsedge, Yellow",[8]; [16],55
same,"Plant response rating, Nutsedge, Yellow",[8]; [18],10
same,"Nutsedge, Yellow plant response rating",[8]; [20],65
same,"Plant response rating, Canarygrass",[9]; [21],20
same,"Plant response rating, Canarygrass",[9]; [22],20
same,"Plant response rating, Canarygrass",[9]; [23],30
same,Canarygrass plant response rating,"[9]; 250 g ai/ha, scale 0 to 100",35
same,"Plant response rating, Chickweed",[10]; [21],100
same,"Plant response rating, Chickweed",[10]; [22],100
same,"Plant response rating, Chickweed",[10]; [23],100
same,Chickweed plant response rating,"[10]; 250 g ai/ha, scale 0 to 100",100
same,"Plant response rating, Windgrass","[11]; 62 g ai/ha, 13 to 15 days",70
same,"Plant response rating, Windgrass","[11]; 125 g ai/ha, visual rating after 13 to 15 days",80
same,"Plant response rating, Barley",[12]; [21],0
same,"Plant response rating, Barley",[12]; [22],0
same,"Plant response rating, Barley",[12]; [23],10
same,Barley plant response rating,"[12]; 250 g ai/ha, scale 0 to 100",10
